Measurements taken from ChEMBL document CHEMBL1909046, “DrugMatrix in vitro pharmacology data”.

Molecular target: T1, Caspase-1 (Homo sapiens, UniProt P29466);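 note: Caspase-1 enzyme inhibition assay with a peptide substrate; in other assays of this panel Not Active means under 50% inhibition at 10 µM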
T1 sequence (P29466 whole entry): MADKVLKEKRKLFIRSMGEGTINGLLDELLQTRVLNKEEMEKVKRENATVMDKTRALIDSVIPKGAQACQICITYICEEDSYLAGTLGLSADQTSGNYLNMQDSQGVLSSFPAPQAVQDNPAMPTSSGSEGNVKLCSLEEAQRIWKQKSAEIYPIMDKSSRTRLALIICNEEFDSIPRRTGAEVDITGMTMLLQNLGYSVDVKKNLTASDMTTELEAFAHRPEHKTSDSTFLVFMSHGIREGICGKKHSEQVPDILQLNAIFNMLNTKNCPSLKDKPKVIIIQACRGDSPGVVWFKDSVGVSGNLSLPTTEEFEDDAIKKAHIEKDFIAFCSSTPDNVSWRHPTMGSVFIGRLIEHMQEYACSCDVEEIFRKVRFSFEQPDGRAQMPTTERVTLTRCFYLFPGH
Set-up: species or system Escherichia coli
Settings: not given
For C#C[C@]1(O)CC[C@H]2[C@@H]3CCC4=CC(=O)CC[C@]4(C)[C@H]3CC[C@@]21C [ETHISTERONE], the IC50 was “Not Active”.
For CC(O)(P(=O)(O)O)P(=O)(O)O [ETIDRONIC ACID], the IC50 was “Not Active”.
In the case of CC(C)(C(=O)O)c1ccc(C(O)CCCN2CCC(C(O)(c3ccccc3)c3ccccc3)CC2)cc1 (centres undefined) [FEXOFENADINE], the IC50 is reported as “Not Active”.
In the case of CN1CCN(c2c(F)cc3c(=O)c(C(=O)O)cn(CCF)c3c2F)CC1 [FLEROXACIN], the IC50 is reported as “Not Active”.

System: not listed separately
Assay: DRUGMATRIX: Tumor Necrosis Factor (TNF), Non-Selective radioligand binding (ligand: [125I] TNF-alpha)
Type: cell membranes, Membrane
Settings: u-937; Not Active = under 50% inhibition at 10 µM
With C#C[C@]1(O)CC[C@H]2[C@@H]3CCC4=CC(=O)CC[C@]4(C)[C@H]3CC[C@@]21C [ETHISTERONE] the IC50 was “Not Active” and the Ki was “Not Active”.
For CC(O)(P(=O)(O)O)P(=O)(O)O [ETIDRONIC ACID], the IC50 was “Not Active” and the Ki was “Not Active”.
With CC(C)(C(=O)O)c1ccc(C(O)CCCN2CCC(C(O)(c3ccccc3)c3ccccc3)CC2)cc1 (centres undefined) [FEXOFENADINE] the IC50 was “Not Active” and the Ki was “Not Active”.
With CN1CCN(c2c(F)cc3c(=O)c(C(=O)O)cn(CCF)c3c2F)CC1 [FLEROXACIN] the IC50 was “Not Active” and the Ki was “Not Active”.

Molecular target: Matrix metalloproteinase-9 (Homo sapiens, UniProt P14780);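 note: inhibition of isolated MMP-9 enzyme activity toward a synthetic peptide substrate, from the DrugMatrix protease screening panel; in other assays of this panel Not Active means under 50% inhibition at 10 µM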
Sequence (P14780 whole entry): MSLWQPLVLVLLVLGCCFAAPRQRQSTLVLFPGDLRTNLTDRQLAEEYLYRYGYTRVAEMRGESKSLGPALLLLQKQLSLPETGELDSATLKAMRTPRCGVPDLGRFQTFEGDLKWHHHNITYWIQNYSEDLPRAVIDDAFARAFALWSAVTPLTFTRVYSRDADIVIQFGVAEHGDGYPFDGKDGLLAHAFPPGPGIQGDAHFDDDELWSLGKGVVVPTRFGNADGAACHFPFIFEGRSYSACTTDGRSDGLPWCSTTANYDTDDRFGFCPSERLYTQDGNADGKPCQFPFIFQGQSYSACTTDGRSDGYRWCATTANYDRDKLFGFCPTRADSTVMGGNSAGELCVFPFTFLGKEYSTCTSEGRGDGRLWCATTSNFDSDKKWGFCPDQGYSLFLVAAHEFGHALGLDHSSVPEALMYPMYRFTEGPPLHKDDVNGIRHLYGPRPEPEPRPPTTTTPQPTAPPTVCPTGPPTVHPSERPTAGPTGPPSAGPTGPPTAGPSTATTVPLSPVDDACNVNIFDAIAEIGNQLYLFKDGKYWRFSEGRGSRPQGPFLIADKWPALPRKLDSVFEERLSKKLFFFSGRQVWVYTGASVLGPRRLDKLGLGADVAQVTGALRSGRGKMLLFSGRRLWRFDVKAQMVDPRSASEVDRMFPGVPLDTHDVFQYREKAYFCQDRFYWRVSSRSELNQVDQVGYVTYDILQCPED
Type: cell-based
Settings: not given
With C#C[C@]1(O)CC[C@H]2[C@@H]3CCC4=CC(=O)CC[C@]4(C)[C@H]3CC[C@@]21C [ETHISTERONE] the IC50 was “Not Active”.
For CC(O)(P(=O)(O)O)P(=O)(O)O [ETIDRONIC ACID], the IC50 was “Not Active”.
For CC(C)(C(=O)O)c1ccc(C(O)CCCN2CCC(C(O)(c3ccccc3)c3ccccc3)CC2)cc1 (centres undefined) [FEXOFENADINE], the IC50 was “Not Active”.
For CN1CCN(c2c(F)cc3c(=O)c(C(=O)O)cn(CCF)c3c2F)CC1 [FLEROXACIN], the IC50 was “Not Active”.

System: not listed separately
Assay: DRUGMATRIX: Glutamate, Kainate radioligand binding (ligand: [3H] Kainic acid)
Type: cell membranes, Rattus norvegicus, Wistar, Brain, Membrane
Settings: Not Active = under 50% inhibition at 10 µM
In the case of C#C[C@]1(O)CC[C@H]2[C@@H]3CCC4=CC(=O)CC[C@]4(C)[C@H]3CC[C@@]21C [ETHISTERONE], the IC50 is reported as “Not Active” and the Ki is reported as “Not Active”.
With CC(O)(P(=O)(O)O)P(=O)(O)O [ETIDRONIC ACID] the IC50 was “Not Active” and the Ki was “Not Active”.
For CC(C)(C(=O)O)c1ccc(C(O)CCCN2CCC(C(O)(c3ccccc3)c3ccccc3)CC2)cc1 (centres undefined) [FEXOFENADINE], the IC50 was “Not Active” and the Ki was “Not Active”.
For CN1CCN(c2c(F)cc3c(=O)c(C(=O)O)cn(CCF)c3c2F)CC1 [FLEROXACIN], the IC50 was “Not Active” and the Ki was “Not Active”.

Molecular target: Protein kinase C alpha type (Homo sapiens, UniProt P17252);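 note: inhibition of PKCalpha kinase activity measured in an enzyme assay with histone as the phosphorylation substrate; in other assays of this panel Not Active means under 50% inhibition at 10 µM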
Type: cell-based
Settings: sf9
With C#C[C@]1(O)CC[C@H]2[C@@H]3CCC4=CC(=O)CC[C@]4(C)[C@H]3CC[C@@]21C [ETHISTERONE] the IC50 was “Not Active”.
For CC(O)(P(=O)(O)O)P(=O)(O)O [ETIDRONIC ACID], the IC50 was “Not Active”.
In the case of CC(C)(C(=O)O)c1ccc(C(O)CCCN2CCC(C(O)(c3ccccc3)c3ccccc3)CC2)cc1 (centres undefined) [FEXOFENADINE], the IC50 is reported as “Not Active”.
For CN1CCN(c2c(F)cc3c(=O)c(C(=O)O)cn(CCF)c3c2F)CC1 [FLEROXACIN], the IC50 was “Not Active”.

Molecular target: Substance-P receptor (Homo sapiens, UniProt P25103); note: in other assays of this panel Not Active means under 50% inhibition at 10 µM
Sequence (P25103 whole entry): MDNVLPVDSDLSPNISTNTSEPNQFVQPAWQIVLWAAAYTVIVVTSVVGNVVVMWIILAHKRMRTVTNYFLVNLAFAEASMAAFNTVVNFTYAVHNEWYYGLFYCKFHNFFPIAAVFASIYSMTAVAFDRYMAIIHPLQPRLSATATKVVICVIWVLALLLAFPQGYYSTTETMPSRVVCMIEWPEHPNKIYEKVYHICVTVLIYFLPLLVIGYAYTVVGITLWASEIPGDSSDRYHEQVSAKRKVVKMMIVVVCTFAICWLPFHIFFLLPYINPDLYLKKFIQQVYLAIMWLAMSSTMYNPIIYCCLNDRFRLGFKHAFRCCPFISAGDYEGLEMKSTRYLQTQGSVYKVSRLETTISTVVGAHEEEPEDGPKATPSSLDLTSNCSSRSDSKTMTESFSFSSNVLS
Type: cell membranes, CHO, Membrane
Settings: cho
With C#C[C@]1(O)CC[C@H]2[C@@H]3CCC4=CC(=O)CC[C@]4(C)[C@H]3CC[C@@]21C [ETHISTERONE] the IC50 was “Not Active”.
With CC(O)(P(=O)(O)O)P(=O)(O)O [ETIDRONIC ACID] the IC50 was “Not Active”.
In the case of CC(C)(C(=O)O)c1ccc(C(O)CCCN2CCC(C(O)(c3ccccc3)c3ccccc3)CC2)cc1 (centres undefined) [FEXOFENADINE], the IC50 is reported as “Not Active”.
With CN1CCN(c2c(F)cc3c(=O)c(C(=O)O)cn(CCF)c3c2F)CC1 [FLEROXACIN] the IC50 was “Not Active”.

Molecular target: T2, Muscarinic acetylcholine receptor M2 (Homo sapiens, UniProt P08172); note: in other assays of this panel Not Active means under 50% inhibition at 10 µM
T2 sequence (P08172 whole entry): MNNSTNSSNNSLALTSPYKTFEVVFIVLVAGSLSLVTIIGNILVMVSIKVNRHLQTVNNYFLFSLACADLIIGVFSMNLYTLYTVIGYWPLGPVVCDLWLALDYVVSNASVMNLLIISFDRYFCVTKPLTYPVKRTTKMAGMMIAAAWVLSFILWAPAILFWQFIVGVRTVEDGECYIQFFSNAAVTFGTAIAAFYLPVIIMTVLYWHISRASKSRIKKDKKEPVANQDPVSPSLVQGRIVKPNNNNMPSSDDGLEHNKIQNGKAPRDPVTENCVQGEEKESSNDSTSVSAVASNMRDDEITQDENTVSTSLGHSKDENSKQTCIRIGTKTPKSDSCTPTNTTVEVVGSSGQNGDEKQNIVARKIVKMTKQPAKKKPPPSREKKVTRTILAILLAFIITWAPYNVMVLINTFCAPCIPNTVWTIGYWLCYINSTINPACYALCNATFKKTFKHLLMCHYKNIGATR
Type: cell membranes, CHO-K1, Membrane
Settings: cho-k1
In the case of C#C[C@]1(O)CC[C@H]2[C@@H]3CCC4=CC(=O)CC[C@]4(C)[C@H]3CC[C@@]21C [ETHISTERONE], the IC50 is reported as “Not Active”.
For CC(O)(P(=O)(O)O)P(=O)(O)O [ETIDRONIC ACID], the IC50 was “Not Active”.
In the case of CC(C)(C(=O)O)c1ccc(C(O)CCCN2CCC(C(O)(c3ccccc3)c3ccccc3)CC2)cc1 (centres undefined) [FEXOFENADINE], the IC50 is reported as “Not Active”.
With CN1CCN(c2c(F)cc3c(=O)c(C(=O)O)cn(CCF)c3c2F)CC1 [FLEROXACIN] the IC50 was “Not Active”.

Molecular target: T3, 3-hydroxy-3-methylglutaryl-coenzyme A reductase (Homo sapiens, UniProt P04035)
T3 sequence (P04035 whole entry): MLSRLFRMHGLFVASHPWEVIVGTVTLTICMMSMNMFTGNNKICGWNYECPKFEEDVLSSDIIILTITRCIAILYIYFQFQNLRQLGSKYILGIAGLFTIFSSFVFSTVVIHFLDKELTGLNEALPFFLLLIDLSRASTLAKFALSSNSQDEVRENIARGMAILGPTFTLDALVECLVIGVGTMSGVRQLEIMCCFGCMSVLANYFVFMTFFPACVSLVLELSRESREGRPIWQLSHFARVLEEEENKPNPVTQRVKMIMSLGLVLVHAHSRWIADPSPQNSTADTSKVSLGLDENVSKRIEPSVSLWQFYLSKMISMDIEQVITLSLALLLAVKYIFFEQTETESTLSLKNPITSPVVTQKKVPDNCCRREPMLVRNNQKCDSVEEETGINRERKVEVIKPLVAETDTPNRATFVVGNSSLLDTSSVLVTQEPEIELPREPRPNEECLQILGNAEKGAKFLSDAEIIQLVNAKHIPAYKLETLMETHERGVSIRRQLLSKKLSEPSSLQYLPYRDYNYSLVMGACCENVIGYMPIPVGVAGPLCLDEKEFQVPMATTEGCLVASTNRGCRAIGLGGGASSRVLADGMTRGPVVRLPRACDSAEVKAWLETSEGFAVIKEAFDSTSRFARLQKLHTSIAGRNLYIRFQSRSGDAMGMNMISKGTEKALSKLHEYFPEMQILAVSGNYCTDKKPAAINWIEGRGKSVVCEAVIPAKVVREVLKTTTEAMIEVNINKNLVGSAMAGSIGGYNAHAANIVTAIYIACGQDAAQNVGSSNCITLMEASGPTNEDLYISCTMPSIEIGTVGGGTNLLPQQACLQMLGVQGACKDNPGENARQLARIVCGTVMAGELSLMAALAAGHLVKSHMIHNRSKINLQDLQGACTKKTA
Set-up: species or system Escherichia coli
Settings: not given
For C#C[C@]1(O)CC[C@H]2[C@@H]3CCC4=CC(=O)CC[C@]4(C)[C@H]3CC[C@@]21C [ETHISTERONE], the IC50 was “Not Active”.
For CC(O)(P(=O)(O)O)P(=O)(O)O [ETIDRONIC ACID], the IC50 was “Not Active”.
In the case of CC(C)(C(=O)O)c1ccc(C(O)CCCN2CCC(C(O)(c3ccccc3)c3ccccc3)CC2)cc1 (centres undefined) [FEXOFENADINE], the IC50 is reported as “Not Active”.
For CN1CCN(c2c(F)cc3c(=O)c(C(=O)O)cn(CCF)c3c2F)CC1 [FLEROXACIN], the IC50 was “Not Active”.

Molecular target: Insulin receptor (Rattus norvegicus, UniProt P15127); note: in other assays of this panel Not Active means under 50% inhibition at 10 µM
Sequence (P15127 27-759 limits assumed): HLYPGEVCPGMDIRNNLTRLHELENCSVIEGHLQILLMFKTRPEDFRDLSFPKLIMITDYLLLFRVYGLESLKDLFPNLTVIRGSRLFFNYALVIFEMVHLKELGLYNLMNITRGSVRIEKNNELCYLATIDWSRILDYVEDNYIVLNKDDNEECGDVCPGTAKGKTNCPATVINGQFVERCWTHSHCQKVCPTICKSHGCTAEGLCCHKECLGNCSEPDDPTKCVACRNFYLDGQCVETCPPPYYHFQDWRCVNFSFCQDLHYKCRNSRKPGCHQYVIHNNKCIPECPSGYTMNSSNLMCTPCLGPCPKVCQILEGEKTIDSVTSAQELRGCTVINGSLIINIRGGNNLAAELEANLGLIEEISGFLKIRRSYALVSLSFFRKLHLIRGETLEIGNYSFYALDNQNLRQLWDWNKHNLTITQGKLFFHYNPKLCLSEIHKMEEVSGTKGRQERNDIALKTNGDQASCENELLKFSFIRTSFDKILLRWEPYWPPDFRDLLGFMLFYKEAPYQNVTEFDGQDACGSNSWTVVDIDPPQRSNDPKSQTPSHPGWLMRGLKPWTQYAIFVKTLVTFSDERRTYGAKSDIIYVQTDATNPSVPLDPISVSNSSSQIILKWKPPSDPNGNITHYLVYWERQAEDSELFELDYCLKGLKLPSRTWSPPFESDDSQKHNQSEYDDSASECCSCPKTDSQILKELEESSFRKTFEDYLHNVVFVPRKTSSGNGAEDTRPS
Sequence (P15127 764-1383 limits assumed): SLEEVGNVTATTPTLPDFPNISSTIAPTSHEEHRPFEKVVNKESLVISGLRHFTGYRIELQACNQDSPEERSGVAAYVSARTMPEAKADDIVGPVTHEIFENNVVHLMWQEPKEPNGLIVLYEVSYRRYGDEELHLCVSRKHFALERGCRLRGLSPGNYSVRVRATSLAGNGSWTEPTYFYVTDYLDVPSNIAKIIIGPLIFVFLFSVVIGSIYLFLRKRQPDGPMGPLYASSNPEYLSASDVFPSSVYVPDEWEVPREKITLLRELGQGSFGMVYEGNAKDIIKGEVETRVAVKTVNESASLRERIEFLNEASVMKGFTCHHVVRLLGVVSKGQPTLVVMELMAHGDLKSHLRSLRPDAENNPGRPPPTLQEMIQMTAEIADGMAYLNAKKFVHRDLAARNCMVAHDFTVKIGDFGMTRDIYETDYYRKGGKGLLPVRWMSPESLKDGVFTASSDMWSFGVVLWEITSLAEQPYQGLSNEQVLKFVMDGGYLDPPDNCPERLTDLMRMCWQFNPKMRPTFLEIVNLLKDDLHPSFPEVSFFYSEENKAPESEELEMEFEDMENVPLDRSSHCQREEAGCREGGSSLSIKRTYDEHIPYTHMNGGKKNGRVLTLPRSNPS
Type: cell membranes, Wistar, Liver, Membrane
Settings: not given
For C#C[C@]1(O)CC[C@H]2[C@@H]3CCC4=CC(=O)CC[C@]4(C)[C@H]3CC[C@@]21C [ETHISTERONE], the IC50 was “Not Active”.
With CC(O)(P(=O)(O)O)P(=O)(O)O [ETIDRONIC ACID] the IC50 was “Not Active”.
For CC(C)(C(=O)O)c1ccc(C(O)CCCN2CCC(C(O)(c3ccccc3)c3ccccc3)CC2)cc1 (centres undefined) [FEXOFENADINE], the IC50 was “Not Active”.
With CN1CCN(c2c(F)cc3c(=O)c(C(=O)O)cn(CCF)c3c2F)CC1 [FLEROXACIN] the IC50 was “Not Active”.
